Data reported in US20220096484A1, “METHODS AND COMPOSITIONS FOR TREATING CANCER BY TARGETING FATP2 AND MYELOID DERIVED SUPPRESSOR CELLS” (The Wistar Institute of Anatomy and Biology, priority 2019, published 2022).

Legend:
[1] = system: PMN differentiated from HPCs; assay: PMN generated from HPC in the presence of GM-CSF and arachidonic acid; format: cell-based, mouse
Procedure: Single cells suspensions from spleen and tumors were prepared as described above. Then cells were stained and sorted on BD FACS Aria BD (Biosciences). PMN-MDSC)(CD45^+ CD11b^+Ly6G^+Ly6C^lo and M-MDSC (CD45^+ CD11b^+Ly6G^−Ly6C^hi) were plated in U-bottom 96-well plates (3 replicates) in RPMI with 10% FBS and co-cultured at different ratios with splenocytes from Pmel or OT-1 transgenic mice in the presence of cognate peptides: OT-1 (SIINFEKL; 0.1 ng/ml), Pmel (EGSRNQDWL; 0.1 μg/ml). After 48 h, cells were incubated with [^3H]-thymidine (PerkinElmer) for 16-18 h. Proliferation was measured by using TopCount NXT instrument (PerkinElmer).
RNA was extracted using Total RNA Kit according to manufacturer's instructions. DNase digestion was performed cDNA was generated with High-Capacity cDNA Reverse Transcription Kit (Applied Biosystems, Foster City, Calif., USA). qRT-PCR was performed using Power SYBR Green PCR Master Mix (Applied Biosystems) in 96- or 384 well plates. Plates were read with ABI 7900 (Applied Biosystems).
Mouse neutrophils were generated from enriched bone marrow hematopoietic progenitor cells (HPCs) with 20 ng/ml of GM-CSF. Briefly, HPCs were isolated from mouse BM by using Lineage depletion kit (Miltenyi), according to manufacturer's instructions. Cells were seeded at 25000 cell/ml in 24 well plates and GM-CSF (20 ng/ml), 20% v/v TES or arachidonic acid (10 μM) were added at day 0 and day 3. At day 5, Ly6G positive neutrophils were isolated by using anti-Ly6G biotin (Miltenyi) and streptavidin beads (Miltenyi), according to manufacturer's instructions.
HPCs were isolated from mouse BM by using Lineage depletion kit (Miltenyi), according to manufacturer's instructions. HPC were resuspended in serum-free medium (SFM) containing lentiviral vectors followed by centrifugation of the plate at 1000 rpm for 20 min at 25° C. Fresh media supplemented with GM-CSF (20 ng/ml) was then added and cells were seeded at 25000 cell/ml in 24 well plates. At day 3, GM-CSF and 20% v/v TES were added to the culture. At day 5, cells were collected, stained with PE conjugated anti mouse Ly6G, APC conjugated anti mouse Ly6C and BV421 conjugated anti-mouse CD11b, and GFP^− and GFP^+Ly6G^+ cells were sorted on BD FACS Melody (BD Biosciences). GFP^− and GFP^+Ly6G^+ cells were seeded at 2.000.000 cells/ml in presence of GM-CSF and TES and incubated for further 24 hours. Pellets and supernatants were collected for further analysis. PGE2 concentration in supernatants was measured by using PGE2 ELISA KIT (Invitrogen), according to manufacturer's instructions.

[2] = system: pSTAT5 / FATP2 in human PMNs; assay: Human PMN from healthy donors treated with GM-CSF (pSTAT5, FATP2); format: cell-based; conditions: human PMNs from blood of healthy donors
Source text: FIG. 12A, Lipid accumulation (measured by BODIPY staining) in M-MDSCs isolated from the blood of patients with cancer or healthy individuals. Each circle indicates an individual. FIG. 12B, Amount of lipids (BODIPY staining) in M-MDSCs from blood and tumor tissue of patients with cancer. Each circle indicates an individual (n=5). FIG. 12C, RNA-seq analysis of genes involved in lipid accumulation in human LOX1^+ PMN-MDSCs and LOX1^− PMNs (n=4). FIG. 12D, PTGES expression in LOX1^+ and LOX1^− PMNs from blood of patients with cancer. Fold change compared with LOX1^− PMNs (n=3). FIG. 12E, SLC27A2 expression in M-MDSCs and monocytes isolated from blood of patients with cancer and healthy donors, respectively. Each circle indicates an individual (n=4-6). Data are mean±s.d. FIG. 12F, pSTAT5 by flow cytometry at different time points, in human PMNs isolated from the blood of healthy donors and treated with different amounts of GM-CSF. FIG. 12G, FATP2 in PMNs isolated from blood of healthy donors and treated with GM-CSF. Representative of three independent experiments. FIG. 12H, Content of total phosphatidylethanolamine (PE) and arachidonoyl-containing phosphatidylethanolamine (AA-PE) in PMN-MDSCs isolated from patients with lung cancer (n=5) or healthy donors (n=4). Each circle indicates an individual. Data are mean±s.d. *P<0.05, **P<0.01, ***P<0.001, ****P<0.0001, unpaired two-sided Student's t-test. […]

STAT5 / FATP2 in PMN = assay: Mouse bone marrow PMN treated with GM-CSF (pSTAT5 flow cytometry, FATP2 Western blot); format: cell-based
Procedure: Cells were lysed in RIPA buffer (Sigma-Aldrich) in presence of protease inhibitor cocktail (Sigma-Aldrich), sonicated and stored at −80° C. Whole cell lysates were prepared and subjected to 10% SDS-PAGE and transferred to PVDF membrane. The membranes were probed overnight at 4° C. with the antibodies specific for FATP2 (SLC27A2) (ThermoFisher), ACTIN, GAPDH, STAT5 (Cell Signaling Technology). Membranes were washed and incubated for 1 h at room temperature with secondary antibody conjugated with peroxidase.
Slc27a2 promoter has a binding site for the transcription factor STAT5 (http://jaspar.genereg.net). STAT5 can be activated by GM-CSF, which plays a critical role in myelopoiesis and expansion of MDSC^23. To explore whether GM-CSF might control slc27a2 expression through STAT5 activation we treated PMN isolated from BM of tumor free mice with GM-CSF for 2 hrs. […] To confirm the role of STAT5 in controlling the expression of slc27a2 in PMN, we crossed Stat5″ mice with S100A8-cre mice to target the deletion of Stat5 to PMN. In the absence of Stat5 in PMN, the tumor growth was slower than in control mice (FIG. 11I). This was associated with lower expression of slc27a2 in PMN (FIG. 11J).

[3] = PMN differentiated from HPC in the presence of AA

In the case of `CCCCC/C=C\C/C=C\C/C=C\C/C=C\CCCC(=O)O` [AA, arachidonic acid], the “expansion of PMN-MDSC” value ([1]; HPC with GM-CSF and AA (10 μM)) is reported as “favored the expansion of PMN-MDSC”, the “suppression of antigen specific T cell responses by the generated PMN” value ([1]; HPC with GM-CSF and AA (10 μM)) is reported as “suppressed antigen specific T cell responses” and the “expression of nox2” value [1, 3] is reported as “increased expression of nox2”. For the same compound, the “production of PGE2” value [1, 3] was “higher production of PGE2”.

In the case of “GM-CSF: cytokine that activates STAT5; plays a critical role in myelopoiesis and expansion of MDSC”, the FATP2 [2] is reported as “up-regulated”, the pSTAT5 [2] is reported as “up-regulated” and the FATP2 protein (STAT5 / FATP2 in PMN; PMN from BM of tumor free mice, GM-CSF) is reported as “up-regulation of FATP2”. The “activation of STAT5 (pSTAT5)” value (STAT5 / FATP2 in PMN; PMN from BM of tumor free mice, GM-CSF for 2 hrs) was “dose-dependent activation of STAT5” and the “expression of FATP2 in Stat5 deficient PMN” value (STAT5 / FATP2 in PMN; Stat5 deficient PMN, GM-CSF) was “failed to increase the expression of FATP2”.
